Experimental data published in PubChem BioAssay (NCI).
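Where inhibition never reached the appropriate level, the endpoint shown equals the highest concentration tested. Otherwise, values were interpolated linearly from a five-concentration, 48-hour dose response in 96-well plates. At the GI50, growth is halved. TGI is the concentration that stops growth completely.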

How the values were obtained:
Test in all cases: DTP human tumour cell line panel, 48 h
MOLT-4 leukemia = test system: MOLT-4 leukemia
UACC-62 melanoma = test system: UACC-62 melanoma
SK-MEL-28 melanoma = test system: SK-MEL-28 melanoma
T-47D breast = test system: T-47D breast
KM12 colon = test system: KM12 colon
HOP-62 NSCLC = test system: HOP-62 NSCLC
MDA-MB-435 = test system: MDA-MB-435
HCT-116 colon = test system: HCT-116 colon
NCI-H522 lung = test system: NCI-H522 lung
SR leukemia = test system: SR leukemia
TK-10 renal = test system: TK-10 renal
HCT-15 colon = test system: HCT-15 colon
PC-3 prostate = test system: PC-3 prostate
OVCAR-5 ovarian = test system: OVCAR-5 ovarian
OVCAR-3 ovarian = test system: OVCAR-3 ovarian
NCI/ADR-RES ovarian = test system: NCI/ADR-RES ovarian
LOX IMVI melanoma = test system: LOX IMVI melanoma
HL-60(TB) leukemia = test system: HL-60(TB) leukemia
COLO 205 colon = test system: COLO 205 colon
786-0 renal = test system: 786-0 renal
OVCAR-8 ovarian = test system: OVCAR-8 ovarian
SK-MEL-2 melanoma = test system: SK-MEL-2 melanoma
CAKI-1 renal = test system: CAKI-1 renal
NCI-H460 lung = test system: NCI-H460 lung
SF-539 CNS = test system: SF-539 CNS
SN12C renal = test system: SN12C renal
CCRF-CEM leukemia = test system: CCRF-CEM leukemia
EKVX NSCLC = test system: EKVX NSCLC

N[C@@H](Cc1c[nH]c2ccccc12)C(=O)NC1CCN(Cc2c[nH]c3ccc(Cl)cc23)CC1
GI50 (MOLT-4 leukemia): 2.79 µM | TGI (MOLT-4 leukemia): 9.6 µM | GI50 (UACC-62 melanoma): 5.56 µM | TGI (UACC-62 melanoma): 18.3 µM | GI50 (SK-MEL-28 melanoma): 1.99 µM | TGI (SK-MEL-28 melanoma): 4.48 µM | GI50 (T-47D breast): 4.65 µM | TGI (T-47D breast): 20 µM | GI50 (KM12 colon): 4.6 µM | TGI (KM12 colon): 16.9 µM | GI50 (HOP-62 NSCLC): 11 µM | TGI (HOP-62 NSCLC): 24.8 µM | GI50 (MDA-MB-435): 5.99 µM | TGI (MDA-MB-435): 18.7 µM | GI50 (HCT-116 colon): 3.87 µM | TGI (HCT-116 colon): 12.6 µM | GI50 (NCI-H522 lung): 10 µM | TGI (NCI-H522 lung): 22.7 µM | GI50 (SR leukemia): 2.33 µM | TGI (SR leukemia): 6.46 µM | GI50 (TK-10 renal): 13.4 µM | TGI (TK-10 renal): 27.2 µM | GI50 (HCT-15 colon): 16.2 µM | TGI (HCT-15 colon): 31 µM | GI50 (PC-3 prostate): 6.01 µM | TGI (PC-3 prostate): 19.9 µM | GI50 (OVCAR-5 ovarian): 5.14 µM | TGI (OVCAR-5 ovarian): 20.8 µM | GI50 (OVCAR-3 ovarian): 10.5 µM | TGI (OVCAR-3 ovarian): 22.5 µM | GI50 (NCI/ADR-RES ovarian): 65.3 µM | TGI (NCI/ADR-RES ovarian): > 100 µM | GI50 (LOX IMVI melanoma): 2.77 µM | TGI (LOX IMVI melanoma): 8.95 µM | GI50 (HL-60(TB) leukemia): 7.04 µM | TGI (HL-60(TB) leukemia): 24.4 µM | GI50 (COLO 205 colon): 2.11 µM | TGI (COLO 205 colon): 4.65 µM | GI50 (786-0 renal): 11.4 µM | TGI (786-0 renal): 24.9 µM | GI50 (OVCAR-8 ovarian): 15.1 µM | TGI (OVCAR-8 ovarian): 29.6 µM | GI50 (SK-MEL-2 melanoma): 16.6 µM | TGI (SK-MEL-2 melanoma): 31.8 µM | GI50 (CAKI-1 renal): 17.8 µM | TGI (CAKI-1 renal): 47.4 µM | GI50 (NCI-H460 lung): 4.71 µM | TGI (NCI-H460 lung): 16 µM | GI50 (SF-539 CNS): 5.62 µM | TGI (SF-539 CNS): 20.2 µM | GI50 (SN12C renal): 15.3 µM | TGI (SN12C renal): 30.4 µM | GI50 (CCRF-CEM leukemia): 2.15 µM | TGI (CCRF-CEM leukemia): 4.95 µM | GI50 (EKVX NSCLC): 10.9 µM
